Measurements: patent publication US11568956B2, “Methods for identifying inhibitors of amyloid protein aggregation” (Treventis Corporation, priority 2008, dated 2023)

Target: T1, Aβ 1-40 (Homo sapiens, UniProt P05067)
T1 construct: ThT aggregation assays of Aβ 1-40 and alpha synuclein
Assay: ThT aggregation assay of Aβ 1-40
Type: biochemical
Method: The anti-amyloid activity of these compounds was evaluated by ThT aggregation assays of Aβ 1-40 and alpha synuclein, as set forth below. The column “A-Syn” below is a functional ThT aggregation assay of alpha synuclein.

T1 sequence (P05067 672-711 limits assumed): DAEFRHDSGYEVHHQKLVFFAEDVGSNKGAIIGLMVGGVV

SMILES	IC50
COc1ccccc1NC(=O)C1CC(O)CN1C(=O)OCc1ccccc1 (stereo not drawn)	> 20 µM
COc1ccc(CNCc2ccc(F)cc2)cc1OC	> 100 µM
COc1ccc2cc(C(C)N)ccc2c1 (stereo not drawn)	> 100 µM
c1ccc2c(c1)CCCC2NCc1ccncc1 (stereo not drawn)	> 100 µM
COc1ccc(CC(=O)Nc2ccc(S(=O)(=O)Nc3nc(C)cc(C)n3)cc2)cc1	> 50 µM
COc1ccc(NS(=O)(=O)c2ccc(NS(=O)(=O)c3cccs3)cc2)c(OC)c1	> 50 µM
COc1ccc(NS(=O)(=O)c2ccc(NS(=O)(=O)c3ccc(Br)s3)cc2)c(OC)c1	> 50 µM
COc1ccc(C2(C(=O)Nc3ccc(S(=O)(=O)Nc4ncccn4)cc3)CCCC2)cc1OC	> 50 µM

Second part, the compound after the results:

IC50	SMILES
> 20 µM	COc1ccc2ccccc2c1/C=N/c1ccc(S(N)(=O)=O)cc1
> 20 µM	O=C(COc1ccccc1)Nc1ccc2c(c1)C(=O)NC2=O
> 20 µM	COc1ccc(N(C)S(=O)(=O)c2ccc(NS(=O)(=O)c3cccs3)cc2)c(OC)c1
> 20 µM	COc1ccccc1N1CCN(C(=O)CN(c2ccc(F)cc2)S(=O)(=O)c2ccccc2)CC1
